Measured values taken from patent publication US6881841B2, “Dibenzosuberanyl piperazine derivatives and drug-resistance overcoming agents containing the derivatives” (priority 2000, dated 2005).

Legend:
[1] = system: Chloroquine-resistant malaria plasmodium Plasmodium chabaudi (AS strain: chloroquine-resistant (3CQ)); test: Test 1: resistance overcoming effect, in vivo test with chloroquine-resistant mouse malaria strain; conditions: ICR male mice, days 0-3, counted on 5th day; for number of PRBCs per 10,000 red blood cells, Chloroquine 3 mg: test compound 50 mg/kg i.p. + chloroquine 3 mg/kg i.p.; for number of PRBCs per 10,000 red blood cells, Chloroquine 3 mg / number of PRBCs per 10,000 red blood cells, Chloroquine 2 mg: Control = chloroquine only; for number of PRBCs per 10,000 red blood cells, Chloroquine 0 mg: test compound 50 mg/kg i.p. + chloroquine 0 mg/kg i.p.; for number of PRBCs per 10,000 red blood cells, Chloroquine 2 mg: test compound 50 mg/kg i.p. + chloroquine 2 mg/kg i.p.
Description: With respect to Compounds 1 to 7, these invention compounds were tested for their resistance overcoming effect in an in vivo test making use of a chloroquine-resistant mouse malaria strain. The test was conducted following the following procedure.
Chloroquine-resistant malaria plasmodium Plasmodlium chabaudi (AS strain: chloroquine-resistant (3CQ)); and
Mice: ICR male mice of 4-5 weeks old (20 to 25 g)
(§1) • 1) Preparation of the compounds: Each test compound was dissolved beforehand in 1/10 volume of DMSO such that the dose of the compound to each mouse per administration would become a final concentration of 50 mg/kg/0.2 mL. The resulting solution was diluted with 0.85% physiological saline to provide a 10% DMSO suspension. • 2) Inoculation with the chloroquine-resistant malaria plasmodium, Plasmodium chabaudi (AS strain: chloroquine-resistant (3CQ): Parasitized red blood cells (PRBCs) (5×10^6 (the 6th power of 10) cells/0.2 mL) were also prepared with 0.85% physiological saline, and inoculated through the caudal vein of each mouse with a 26×½-gauge tuberculin needle. • 3) Administration of the compounds and chloroquine: Two hours after the inoculation with the plasmodium, each test compound (50 mg/kg/0.2 mL) was intraperitoneally administered with 21×½-gauge needles to three groups of mice per compound. Chloroquine solutions of three concentrations, which had been prepared with 0.85% physiological saline to give final concentrations of 0 mg/kg/0.1 mL, 2 mg/kg/0.1 mL and 3 mg/kg/0.1 mL, respectively, were then also administered intraperitoneally with 26×½-gauge tuberculin needles to the three groups of mice which had been administered with the compound. To three control groups, the three chloroquine solutions were only administered, respectively. The compound and chloroquine were administered four times in total, that is, on the 0th, 1st, 2nd and 3rd days after the inoculation with the plasmodium. • 4) Determination of effect: Every day after the inoculation with the plasmodium, the tail of each mouse was cut to a minimum at the tip thereof with scissors to cause bleeding, and a Giemsa staining specimen smeared with a thin film of the blood was prepared. On the 5th day, the number of PRBCs per 10,000 red blood cells was counted, and based on a comparison of the PRBC number with the corresponding number of the group administered only with chloroquine, the chloroquine resistance overcoming effect of the test compound was determined.

[2] = system: Chloroquine-resistant malaria plasmodium Plasmodium chabaudi (AS strain: chloroquine-resistant (3CQ)); test: Test 2: resistance overcoming effect of Compound 8, as Test 1 but determined on the fourth day; type: in vivo; conditions: for number of PRBCs per 10,000 red blood cells, Chloroquine 2 mg: test compound 50 mg/kg i.p. + chloroquine 2 mg/kg i.p.; for number of PRBCs per 10,000 red blood cells, Chloroquine 2 mg / number of PRBCs per 10,000 red blood cells, Chloroquine 3 mg: Control = chloroquine only; for number of PRBCs per 10,000 red blood cells, Chloroquine 3 mg: test compound 50 mg/kg i.p. + chloroquine 3 mg/kg i.p.
Description: as §1
Resistance overcoming effect of Compound 8 was tested in a similar manner as in Test 1. The time of determination of the effect was set on the fourth day.

[3] = ICR male mice, days 0-3, determined on fourth day

SMILES | number of PRBCs per 10,000 red blood cells, Chloroquine 3 mg [1] | melting point [°C] | number of PRBCs per 10,000 red blood cells, Chloroquine 0 mg ([2]; ICR male mice, test compound 50 mg/kg i.p. + chloroquine 0 mg/kg i.p., days 0-3, determined on fourth day) | number of PRBCs per 10,000 red blood cells, Chloroquine 2 mg [2, 3] | number of PRBCs per 10,000 red blood cells, Chloroquine 3 mg [2, 3] | chloroquine resistance overcoming effect (in words) ([2]; conclusion from Table 2) | number of PRBCs per 10,000 red blood cells, Chloroquine 0 mg [1] | number of PRBCs per 10,000 red blood cells, Chloroquine 2 mg [1]
C=CC(CO)N1CCN(C2c3ccccc3CCc3ccccc32)CC1 (centres unmarked) [Compound 5, 1-Dibenzosuberanyl-4-(1-hydroxybutan-3-en-2-yl)piperazine] | 0 per 10,000 red blood cells | 123 | – | – | – | – | – | –
CCCCCCCCC(O)CN1CCN(C2c3ccccc3CCc3ccccc32)CC1 (centres unmarked) [Compound 8, 1-Dibenzosuberanyl-4-(2-hydroxydecanyl)piperazine] | – | – | 7475 per 10,000 red blood cells | 4875 per 10,000 red blood cells | 3025 per 10,000 red blood cells | overcoming of chloroquine resistance | – | –
C=CCCCCCCC(O)CN1CCN(C2c3ccccc3CCc3ccccc32)CC1 (centres unmarked) [Compound 1, 1-Dibenzosuberanyl-4-(2-hydroxydecan-9-en-1-yl)piperazine] | 280 per 10,000 red blood cells | – | – | – | – | – | 4250 per 10,000 red blood cells | 3100 per 10,000 red blood cells
C=CCCCCC(O)CN1CCN(C2c3ccccc3CCc3ccccc32)CC1 (centres unmarked) [Compound 2, 1-Dibenzosuberanyl-4-(2-hydroxy-7-octenyl)-piperazine] | 0 per 10,000 red blood cells | – | – | – | – | – | 8450 per 10,000 red blood cells | 0 per 10,000 red blood cells
C=CC(O)CN1CCN(C2c3ccccc3CCc3ccccc32)CC1 (centres unmarked) [Compound 4, 1-Dibenzosuberanyl-4-(2-hydroxy-3-butenyl)-piperazine] | 0 per 10,000 red blood cells | 93 | – | – | – | – | 8000 per 10,000 red blood cells | 430 per 10,000 red blood cells
C=CCCC(O)CN1CCN(C2c3ccccc3CCc3ccccc32)CC1 (centres unmarked) [Compound 3, 1-Dibenzosuberanyl-4-(2-hydroxy-5-hexenyl)-piperazine] | 292 per 10,000 red blood cells | – | – | – | – | – | 4500 per 10,000 red blood cells | –
OCC#CCN1CCN(C2c3ccccc3CCc3ccccc32)CC1 | – | 129 | – | – | – | – | – | –
CCN(CC)CCCC(C)Nc1ccnc2cc(Cl)ccc12 (centres unmarked) [Control, chloroquine, reference compound] | 3750 per 10,000 red blood cells | – | – | 4525 per 10,000 red blood cells | 3600 per 10,000 red blood cells | – | – | 4900 per 10,000 red blood cells
